Our source for the TGI values is PubChem BioAssay (NCI).

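Exposure lasted 48 hours, with cells grown in 96-well plates and compounds tested at five concentrations. TGI denotes the concentration required for complete inhibition of growth.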 Bounds are passed on as bounds.

Test in all cases: growth of human tumour cells (NCI), 48 h
Test [1] relates to SK-MEL-2 melanoma.
The test system of test [2] is OVCAR-8 ovarian.
Test [3] concerns SF-539 CNS.
The test system of test [4] is K-562 leukemia.
Test [5] has as its system SW-620 colon.
Test [6] deals with SN12C renal.
The subject of test [7] is HCT-116 colon.
For test [8], the system named is MOLT-4 leukemia.
Test [9] concerns IGROV1 ovarian.
Test [10] deals with UACC-257 melanoma.

For `O=C(c1ccccc1)c1ccc2[nH]c(-c3c(Cl)c(Cl)c(Cl)c(Cl)c3C(=O)N/N=C/c3cccc(Oc4ccccc4)c3)nc2c1`, the TGI in test [1], in test [2], in test [3], in [4], in test [5] and in [6] was over 100 µM in each case. Further, the TGI in test [7], in test [8], in test [9] and in [10] was over 100 µM each time.
As for `CC(=O)OCC1OC(Nn2c(=O)[nH]c3ccccc3c2=O)C(OC(C)=O)C(OC(C)=O)C1OC(C)=O` (stereo not given), the TGI in test [1], in test [2], in test [3], in test [4], in [5] and in test [6] was over 100 µM throughout. The TGI in [7], in [8], in test [9] and in test [10] was over 100 µM in each case.
As for `Nc1nc2ncc(CNc3ccc(C(=O)NC(CCC(=O)O)C(=O)O)cc3)nc2c(=O)[nH]1` (stereo not given), the TGI in [1], in test [2], in [3], in test [4], in test [5] and in [6] was over 100 µM in each case. Also, the TGI in test [8], in test [9] and in [10] was over 100 µM each time.
Regarding `N#Cc1c(-c2ccc(Cl)cc2)[nH]c(=O)n(C2OC(CO)C(O)C(O)C2O)c1=O` (stereo not given), the TGI in test [1], in [2], in test [3], in [4], in test [5] and in [6] was over 100 µM each time. Further, the TGI in [7], in test [8], in test [9] and in test [10] was over 100 µM each time.
As for `O=C(CN1CCOCC1)c1ccc2c(c1)oc(=O)n2CCN1CCOCC1`, the TGI in test [1], in test [2], in test [3], in test [4], in test [5] and in test [6] was over 100 µM in each case. Besides, the TGI in [7], in test [8] and in test [9] was over 100 µM throughout.
For `O=c1[nH]nc(-c2ccccc2)n1/N=C/c1cccs1`, the TGI in test [1], in [2], in test [3], in test [4], in test [5] and in test [6] was over 100 µM throughout. Moreover, the TGI in test [7], in test [8] and in [10] was over 100 µM in each case.
Regarding `COc1ccc(N2C(=O)C3c4[nH]c5ccc(Br)cc5c4C4CCC(C(C)(C)C)CC4C3C2=O)cc1` (stereo not given), the TGI in [1], in test [2], in test [3], in test [4], in test [5] and in test [6] was over 100 µM each time. For the same compound, the TGI in test [7], in [8], in [9] and in test [10] was over 100 µM throughout.
Take `NCCCC[C@H](N)C(=O)Nc1ccc(-c2nc3ccccc3s2)cc1`: the TGI in [1] is over 100 µM; in [2], 40.1 µM; in test [4], 36.3 µM; in test [5], 30.6 µM; in test [6], 74.3 µM; in test [7], 33 µM. The TGI in test [8] is 31.2 µM; in test [9], 31.5 µM; in test [10] it was over 100 µM.
Consider `CCOC(=O)c1cc2/c(=C\c3ccc(N(C)C)cc3)c3ccccc3n2[n+]1C`, for which the TGI in [1] is 4.74 µM; in test [2], 36.1 µM; in test [3], 4.02 µM; in test [4] it was over 58 µM; in test [5], 13.1 µM; in [6], 14.4 µM. For the same compound, the TGI in [7] is 11.1 µM; in [8], over 23.4 µM; in test [10], 11.8 µM.
On to `CC(C)[C@H](NC(=O)[C@H](N)Cc1ccc(N(CCCl)CCCl)cc1)C(=O)O`, for which the TGI in [1], in [2], in [4], in [5], in [6] and in [7] was over 100 µM throughout. Moreover, the TGI in [8], in test [9] and in test [10] was over 100 µM in each case.
`O=C1CSC(c2ccccc2[N+](=O)[O-])N1c1ccc(-c2ccc(-n3c(-c4ccccc4)nc4ccccc4c3=O)cc2)cc1` (stereo not given): the TGI in [1], in test [2], in test [3], in test [4], in test [5] and in test [6] was over 100 µM throughout. The TGI in test [7], in [8], in test [9] and in [10] was over 100 µM in each case.
`O=c1ccn(COC(COCc2ccccc2)COCc2ccccc2)c(=O)[nH]1`: the TGI in test [1], in test [2], in test [4], in [5], in test [6] and in test [7] was over 100 µM throughout. The TGI in test [8], in test [9] and in [10] was over 100 µM throughout.
`CC1SCc2nc3ccccc3n21` (stereo not given): the TGI in test [1], in [2], in test [3], in [4], in test [6] and in [7] was over 100 µM each time. Besides, the TGI in [8], in test [9] and in test [10] was over 100 µM each time.
For `COC1CC(COCc2ccccc2)CC(OC)O1` (stereo not given), the TGI in test [2], in test [3], in test [4], in test [5], in [6] and in test [7] was over 100 µM throughout. For the same compound, the TGI in [8] and in [10] was over 100 µM each time.
